{"source": "patent EP4361137A1", "about": "“PRUNE1 INHIBITORS AND THERAPEUTIC USE THEREOF” (CEINGE Biotecnologie Avanzate Franco Salvatore s.c. a r.l., priority 2022, dated 2024)", "key": {"[1]": {"system": "MATH1-Prune1/TP53-/- cells", "assay": "Real-time cell proliferation assay (cell index, xCELLigence)", "format": "cell-based, murine", "settings": "impedance every 2 min over 24 h", "experimental": "Primary murine TNBC cells from tumors generated by MMTV-Prune1/Wnt1 mice [Ferrucci et al., 2021] and Primary murine Medulloblastoma Group 3 cells from tumors generated MATH-Prune1/TP53-/- mice were obtained (2 months from tumor onset).\n(§1) Cellular proliferation rates were determined with the xCELLigence system (Roche). D425-MED, MATH-Prune1/TP53-/- and MMTV-Prune1/Wnt1 cells (8 × 10^3) were treated with increasing concentrations of LEO-AA7.5(S)T, harvested, and then added to a single well of an xCELLigence E-plate 16. The proliferation rates were determined at 2-min intervals by measuring the impedance changes across the electrodes at the bottoms of the wells. These cell index values were calculated by the xCELLigence RTCA software. with vehicle-treated cells were the negative control. Impedance was measured every 2 min over 24 hours. The IC50 values were calculated through nonlinear regression analysis performed with Graph Pad Prism 9 ([inhibitor] vs. response (three parameters). Data are means ± SD of three independent experiments."}, "Caspase 3": {"system": "Caspase 3", "assay": "Caspase 3 activity assay", "format": "cell-based, murine", "settings": "MATH1-Prune1/TP53-/- cells; Vincristine 0.3 nM and 0.03 nM; LEO-AA7.5(S)T 10 µM; 24 hours", "experimental": "MATH1-Prune1/TP53-/- cells (3×10^4) were plated in 96-well plate and treated with different doses of Vincristine (i.e., 0.3 nM or 0.03 nM) alone or combined to 10 µM LEO-AA7.5(S)T. Vehicle- (0.01% DMSO) treated cells were used as negative controls. Staurosporine-treated cells (1 µM) were used as positive controls of the assays. The assay was performed by using Caspase-3 Activity Assay Kit (#5723, Cell Signaling), by following the manufacture's instruction. Briefly, after 24 hours from the treatment started, cell medium was removed and 30 ul of cell lysis buffer (PI-7018, Cell Signaling) were added. The plate was then incubated for 5 minutes on ice. Later, 25 ul of cell lysate were mixed with 200 ul substrate solution B (#11734S, Cell Signaling) in a black 96 well plate. Fluorescence was detected by using a multimode plate reader (Enspire, 2300, PerkinElmer). The positive control AMC (25 µl, #11735S, Cell Signaling) mixed with 200 ul 1X assay buffer A (#11736S, Cell Signaling) was used as positive control of fluorescence."}, "MATH1-Prune1/ TP53-/-": {"system": "MATH1-Prune1/ TP53-/-", "assay": "Orthotopic implantation of MATH1-Prune1/TP53-/- cells in immunocompetent syngeneic mice, tumor growth", "format": "in vivo, FVB WT mice", "settings": "AA7.1 at 30 mg/kg/day or 60 mg/kg/day intraperitoneally", "experimental": "MATH1-Prune1/ TP53-/- were implanted into the right cerebellar hemisphere of female (n.10) immunocompetent syngeneic mice model (5 weeks old, strain: FVB WT) to establish intracerebellar MATH1-Prune1/ TP53-/- models. Mice were anaesthetised with Ketamine/ Xylazine (87.5 mg/kg, 12.5 mg/kg, respectively). The mice were then placed in a stereotactic frame by hooking their incisors onto the frame hold. A small skin incision (length, 1 mm) and a burr hole (diameter, 0.7 mm) were created using a microsurgical drill (Fine Science Tools, Foster City, CA, USA of MATH1-Prune1/ TP53-/- (1.5 ×10^5) were resuspended in 10 µL PBS and injected slowly through the burr hole into the right cerebellar hemisphere (stereotactic coordinates from Bregma: anteroposterior, 5.5 mm; right lateral, 2.1 mm; dorsoventral 5.0 mm), with a steady force over 30 s, using a 10-AL, 26-gauge Hamilton Gastight model 1701RN syringe needle (SigmaAldrich) that was inserted perpendicular to the cranial surface. The incision was sutured using Safil polyglycolic acid synthetic absorbable suture (6/0). The mice were kept on a warming blanket after the surgery, to help them to maintain their body temperature. Their mobility and respiratory patterns were observed continuously, and once the mice had recovered from the anaesthesia; they were place in a sterile housing cage. The mice were monitored daily for development of potential neurological deficits. 10 days after the implantation of the cells, the mice were imaged, and tumour growth was evaluated by bioluminescence acquisition using an imaging system (IVIS 3D Illumina; Xenogen/ Caliper). For the acquisitions, the mice were anaesthetised by inhalational of isoflurane, and the D-luciferin (122799; PerkinElmer) (15 mg/mL stock) was injected intraperitoneally (100 µL per 10 g body weight). At 5 min from the luciferin injection, the mice were imaged for 3 min. To quantify the bioluminescence, the integrated fluxes of photons (p/s) within each area of interest were determined using the Living Images Software Package 3.2 (Xenogen-Perkin Elmer). […] After 17 days from tumour implantation (i.e., after one weeks of LEO-AA7.5(S)T treatment), the mice were sacrificed, and the organs were collected for immunohistochemistry and immunofluorescence analyses.\nParaffin sections of the tumor specimens (thickness, 3 µm) were deparaffinised and rehydrated by immersing the slides in Xylene Substitute (A5597; Sigma), as three washes for 5 min each, then serially in 100%, 95%, 70%, 50%, and 30% ethanol (two washes for 10 min, for each), and deionised water (two washes, for 5 min each). The washes were then followed by PBS, PBS containing 0.02% Triton-X 100 (215680010; Acros Organics), and PBS (two washes for 5 min, for each). For antigen retrieval, the slides were immersed in boiling 10 mM sodium citrate buffer (pH 6.0) using a microwave oven, and then maintained at sub-boiling temperature for 10 min. The slides were left to cool at room temperature for 30 min. The sections were then washed by immersion in distilled water for 5 min. To block endogenous peroxidase activity, the tissue sections were placed in a solution with 3.0% hydrogen peroxide in methanol for 15 min. Then, to decrease the nonspecific background fluorescence, the tissues were digested by treating them with a solution containing 0.2% trypsin (T2600000; Sigma-Aldrich) and 0.001% CaCl2 for 10 min at 37 °C, in a humidified chamber. The slides were then washed in PBS, PBS containing 0.02% Triton-X 100 (215680010; Acros Organics), and PBS (two washes for 5 min, for each). The tissue sections were blocked with 6% bovine serum albumin (A9418; Sigma), 5% fetal bovine serum (ECS0180L; Euroclone), and 20 mM MgCl2 in PBS containing 0.02% Triton-X 100, for 1 h at room temperature, and incubated overnight with the primary antibodies at 4 °C in a humidified chamber. […]"}, "D425-MED cells [2]": {"system": "D425-MED cells", "settings": "Ferrucci et al., 2018, read-out: IC50 reported for AA7.1 in the same D425-Med cells; cited from earlier work"}, "[3]": {"settings": "15, 30, and 60 mg/kg intraperitoneally daily for 1 week; Ferrucci et al.; cited from earlier work"}, "D425-MED cells [4]": {"system": "D425-MED cells", "assay": "Real-time cell proliferation assay (cell index, xCELLigence)", "format": "cell-based, human", "settings": "combination with Vincristine", "experimental": "J774A.1 murine macrophages (referred to as J774 cells; ATCC: #TIB-67), MMTV-Prune1-Wnt1 cells were grown in high-glucose Dulbecco's modified Eagle's medium (DMEM; Euroclone) supplemented with 20% (v/v) FBS, 2 mM L-glutamine, and 1% (v/v) antibiotics (Pen/Strep). D425-MED, D425-MED-Luc and […] cells were grown in high-glucose Dulbecco's modified Eagle's medium (DMEM; Euroclone) and Iscove's Modified Dulbecco's Medium (IMDM; Sigma) at 1:1 (v/v) dilution supplemented with 20% (v/v) FBS, 2 mM L-glutamine, 1% non-essential amino acid solution (M7145; Sigma-Aldrich/Merck), and 1% (v/v) antibiotics (Pen/Strep). The cells were grown at 37 °C in a humidified atmosphere of 95% air, 5% CO2 (v/v).\nD425.MED and MMTV-Prune1/Wnt1 cells were plated and treated with increasing concentrations of LEO-AA7.5(S)T for 24 hours. Water-treated cells were used as negative control for the experiments.\nas §1"}}, "note": "Several values for one entry are separate records, joined by “and”; a condition that tells them apart may be missing. Identical values can stand only once. Entries after “also recorded” stand apart in the source; their conditions may differ."}
{"smiles": "CC[C@]1(O)C[C@H]2CN(CCc3c([nH]c4ccccc34)[C@@](C(=O)OC)(c3cc4c(cc3OC)N(C=O)[C@H]3[C@@](O)(C(=O)OC)[C@H](OC(C)=O)[C@]5(CC)C=CCN6CC[C@]43[C@@H]65)C2)C1", "note": "[Vincristine]", "values": [{"measurement": "half maximal inhibitory concentration (IC50) for the inhibition of cell proliferation index", "setting": "[1]", "result": "35 µM and 19,6 µM"}, {"measurement": "Caspase 3 activation, single agent", "setting": "Caspase 3", "result": "activation of Caspase 3"}]}
{"smiles": "COc1ccc(CNc2ccnc(N3CC[C@@H](O)C3)n2)cc1", "note": "[AA7.1, (R)-1-(4-((4-methoxybenzyl)amino)pyrimidin-2-yl)pyrrolidin-3-ol, reference compound]", "values": [{"measurement": "MB progression / tumour growth in cerebellum (bioluminescence)", "setting": "MATH1-Prune1/ TP53-/-", "result": "inhibit MB progression; also recorded: impairment of tumour growth"}, {"measurement": "IC50", "setting": "D425-MED cells [2]", "result": "130 ± 52.1", "unit": "µM"}, {"measurement": "acute toxicity (hematological parameters, hepatotoxicity, nephrotoxicity)", "setting": "[3]", "result": "no immediate acute toxicity"}]}
{"smiles": "COc1ccc(CNc2ncnc(N3CCCC(CO)C3)n2)cc1", "note": "(stereo not drawn) [compound (I)]", "values": [{"measurement": "dose of the chemotherapeutics diminished by synergistic action with Vincristine", "setting": "D425-MED cells [4]", "result": "more than 100 fold"}]}
